This is an account of results in US20170233414A1, “DERIVATIVES OF BODIPY” (OREGON HEALTH & SCIENCE UNIVERSITY, priority 2016, published 2017).

The nature of the data set: Fluorescence properties and quantum yield measurements of the BAA library. Format: physicochemical. Also noted: FWHM (full-width-at half max): unit not given here. Particulars: anhydrous DMSO; for λmax ABS / λmax EM: polystyrene 96 well plate; for FWHM (full-width-at half max): emission; for φfl (quantum yield): relative to reference fluorophore at three concentrations. The procedure:
General Instruments. Synthesized sample purification was performed with an Agilent 1260 Infinity HPLC utilizing a C18 column (150mm×21.2 mm). MS (HRMS, ESI) spectra data was collected with an Agilent 6244 TOF LC/MS with diode array detector VL+ and C18 column (4.6 mm×50 mm). Absorbance and fluorescence data were measured on a SpectraMax M5 Microplate reader. NMR spectra, ^1H and ^13C, were recorded on a Bruker ARK400 spectrometer. BAA microscopy screening in cells for organelle specificity and signal-to-background ratio was completed with an Axio Zeiss Light Microscope and 63× oil immersion objective.
Fluorescence Properties and Quantum Yield Measurements. Spectroscopic characterizations were performed in anhydrous DMSO in polystyrene 96 well plate. Analysis included the maximum absorbance wavelength, maximum fluorescence emission wavelength, full-width-at half max, and quantum yield. Quantum yields (φfl) were determined by comparing the area under the emission spectrum of the BAA compound to a reference fluorophore solution at three concentrations using equation 1, where Grad represents the gradient from the plots of integrated fluorescence intensity vs absorbance at three concentrations and q is the refractive index of the solvent. Fluorescein in 0.1 M NaOH (φfl=0.91)^3 was the reference for samples with a max absorbance up to 510 nm, where an excitation of 470 nm was used with the emission integrated between 490 to 800 nm. Rhodamine B in ethanol (φfl=0.70) was the reference for samples with a max absorbance between 511-595 nm, where an excitation of 525 nm was used with the emission integrated between 545 to 800 nm. Cresyl violet in methanol (φfl=0.54)^4 was the reference for samples with a max absorbance above 595 nm, where an excitation of 570 nm was used with the emission integrated between 590 to 800 nm.

Take `CC1=CC(/C=C/c2ccc(OCc3ccccc3)cc2)=[N+]2C1=Cc1ccc(CCC(=O)O)n1[B-]2(F)F` [BAA-18a]: the “Stokes Shift” value is 16 nm, the “λmax ABS” value amounted to 577 nm, the “λmax EM” value was 593 nm and the “FWHM (full-width-at half max)” value is on record as 37. The “φfl (quantum yield)” value was 0.65.

With `COc1cc(/C=C(/CC(=O)O)c2ccc3n2[B-](F)(F)[N+]2=C(/C=C/c4ccc(OCc5ccc(F)cc5)c(OC)c4)C=C(C)C2=C3)ccc1OCc1ccc(F)cc1` [BAA-22b], the “Stokes Shift” value was determined as 19 nm, the “λmax ABS” value came to 582 nm, the “λmax EM” value is recorded as 601 nm and the “FWHM (full-width-at half max)” value came to 46. Further, the “φfl (quantum yield)” value is given as 0.27.

Consider `COc1ccc2c(c1)C(/C=C/C1=[N+]3C(=Cc4ccc(CCC(=O)O)n4[B-]3(F)F)C(C)=C1)C=N2` (stereo not drawn) [BAA-6a], for which the “Stokes Shift” value came out at 34 nm, the “λmax ABS” value is recorded as 609 nm, the “λmax EM” value amounted to 643 nm and the “FWHM (full-width-at half max)” value is on record as 64. In addition, the “φfl (quantum yield)” value is listed as 0.18.

As for `CC1=CC(C=Cc2cc(F)ccc2O)=[N+]2C1=Cc1ccc(C(=Cc3cc(F)ccc3O)CC(=O)O)n1[B-]2(F)F` [BAA-31b], the “Stokes Shift” value worked out at 12 nm, the “λmax ABS” value is recorded as 576 nm, the “λmax EM” value worked out at 588 nm and the “FWHM (full-width-at half max)” value is 34. In addition, the “φfl (quantum yield)” value amounted to 0.28.

`CC1=CC(C=Cc2cnn(-c3ccccc3)c2C)=[N+]2C1=Cc1ccc(C(=Cc3cnn(-c4ccccc4)c3C)CC(=O)O)n1[B-]2(F)F` [BAA-55b]: the “Stokes Shift” value came out at 16 nm, the “λmax ABS” value is listed as 575 nm, the “λmax EM” value stood at 591 nm and the “FWHM (full-width-at half max)” value was 38. The “φfl (quantum yield)” value was found to be 0.75.

With `C=CCc1cc(/C=C/C2=[N+]3C(=Cc4ccc(CCC(=O)O)n4[B-]3(F)F)C(C)=C2)ccc1OC` [BAA-15a], the “Stokes Shift” value is 16 nm, the “λmax ABS” value is on record as 581 nm, the “λmax EM” value came out at 597 nm and the “FWHM (full-width-at half max)” value was determined as 39. Besides, the “φfl (quantum yield)” value was found to be 0.42.

On to `CC1=CC(/C=C/c2cccc(I)c2)=[N+]2C1=Cc1ccc(/C(=C\c3cccc(I)c3)CC(=O)O)n1[B-]2(F)F` [BAA-24b], for which the “Stokes Shift” value was 9 nm, the “λmax ABS” value is 570 nm, the “λmax EM” value was found to be 579 nm and the “FWHM (full-width-at half max)” value stood at 32. The “φfl (quantum yield)” value came to 0.29.

Consider `COc1ccc(C=O)cc1OCCOc1cc(C=CC2=[N+]3C(=Cc4ccc(CCC(=O)O)n4[B-]3(F)F)C(C)=C2)ccc1OC` [BAA-74a], for which the “Stokes Shift” value came to 18 nm, the “λmax ABS” value is on record as 584 nm, the “λmax EM” value is given as 602 nm and the “FWHM (full-width-at half max)” value amounted to 59. The “φfl (quantum yield)” value amounted to 0.15.

Take `CC1=CC(/C=C/c2ccc(CC(C)C)s2)=[N+]2C1=Cc1ccc(CCC(=O)O)n1[B-]2(F)F` [BAA-14a]: the “Stokes Shift” value came to 13 nm, the “λmax ABS” value is reported as 594 nm, the “λmax EM” value is given as 607 nm and the “FWHM (full-width-at half max)” value is given as 70. Also, the “φfl (quantum yield)” value came to 0.44.

`COc1cc(/C=C(/CC(=O)O)c2ccc3n2[B-](F)(F)[N+]2=C(/C=C/c4cc(I)c(OC)c(OC)c4)C=C(C)C2=C3)cc(I)c1OC` [BAA-3b]: the “Stokes Shift” value is listed as 13 nm, the “λmax ABS” value is recorded as 574 nm, the “λmax EM” value came out at 587 nm and the “FWHM (full-width-at half max)” value is given as 34. The “φfl (quantum yield)” value worked out at 0.70.

Consider `CC1=CC(/C=C/c2cc(Cl)ccc2Cl)=[N+]2C1=Cc1ccc(/C(=C\c3cc(Cl)ccc3Cl)CC(=O)O)n1[B-]2(F)F` [BAA-29b], for which the “Stokes Shift” value stood at 11 nm, the “λmax ABS” value came out at 569 nm, the “λmax EM” value was determined as 580 nm and the “FWHM (full-width-at half max)” value amounted to 37. Moreover, the “φfl (quantum yield)” value is recorded as 0.13.

For `CC1=CC(C=Cc2ccc(-c3cccs3)nc2)=[N+]2C1=Cc1ccc(CCC(=O)O)n1[B-]2(F)F` [BAA-56a], the “Stokes Shift” value is given as 10 nm, the “λmax ABS” value turned out to be 585 nm, the “λmax EM” value came to 595 nm and the “FWHM (full-width-at half max)” value came out at 32. Further, the “φfl (quantum yield)” value amounted to 0.91.

Take `CC1=CC(C=Cc2ccc(OCc3sccc3C#N)cc2)=[N+]2C1=Cc1ccc(C(=Cc3ccc(OCc4sccc4C#N)cc3)CC(=O)O)n1[B-]2(F)F` [BAA-36b]: the “Stokes Shift” value was determined as 13 nm, the “λmax ABS” value turned out to be 579 nm, the “λmax EM” value stood at 592 nm and the “FWHM (full-width-at half max)” value is 37. Besides, the “φfl (quantum yield)” value was 0.35.

Regarding `CC1=CC(C=Cc2ccc(Cl)nc2)=[N+]2C1=Cc1ccc(CCC(=O)O)n1[B-]2(F)F` [BAA-39a], the “Stokes Shift” value worked out at 51 nm, the “λmax ABS” value amounted to 606 nm, the “λmax EM” value was determined as 657 nm and the “FWHM (full-width-at half max)” value is on record as 79. The “φfl (quantum yield)” value turned out to be 0.19.

As for `CC1=CC(/C=C/c2ccc(-c3ccc(C(F)(F)F)cn3)cc2)=[N+]2C1=Cc1ccc(CCC(=O)O)n1[B-]2(F)F` [BAA-23a], the “Stokes Shift” value turned out to be 11 nm, the “λmax ABS” value was found to be 592 nm, the “λmax EM” value is on record as 603 nm and the “FWHM (full-width-at half max)” value came to 30. Besides, the “φfl (quantum yield)” value turned out to be 0.23.

Consider `CCCSc1ncc(/C=C/C2=[N+]3C(=Cc4ccc(CCC(=O)O)n4[B-]3(F)F)C(C)=C2)cn1` [BAA-12a], for which the “Stokes Shift” value amounted to 27 nm, the “λmax ABS” value amounted to 589 nm, the “λmax EM” value was 616 nm and the “FWHM (full-width-at half max)” value is 88. Further, the “φfl (quantum yield)” value is given as 0.10.

Consider `CC1=CC(C=Cc2ccc(Oc3ccc([N+](=O)[O-])cc3)cc2)=[N+]2C1=Cc1ccc(CCC(=O)O)n1[B-]2(F)F` [BAA-32a], for which the “Stokes Shift” value is 10 nm, the “λmax ABS” value is 574 nm, the “λmax EM” value was determined as 584 nm and the “FWHM (full-width-at half max)” value stood at 32. Further, the “φfl (quantum yield)” value is 0.23.

`CC1=CC(C=Cc2ccc(-c3cccc(C(F)(F)F)c3)nc2)=[N+]2C1=Cc1ccc(CCC(=O)O)n1[B-]2(F)F` [BAA-70a]: the “Stokes Shift” value is recorded as 8 nm, the “λmax ABS” value was 580 nm, the “λmax EM” value was 588 nm and the “FWHM (full-width-at half max)” value stood at 33. The “φfl (quantum yield)” value came to 0.17.

In the case of `COC(=O)c1ccc(-c2cccc(C=CC3=[N+]4C(=Cc5ccc(CCC(=O)O)n5[B-]4(F)F)C(C)=C3)c2)cc1` [BAA-58a], the “Stokes Shift” value is given as 10 nm, the “λmax ABS” value is on record as 572 nm, the “λmax EM” value worked out at 582 nm and the “FWHM (full-width-at half max)” value turned out to be 30. In addition, the “φfl (quantum yield)” value is 0.70.

For the compound `CC1=CC(/C=C/c2cc(C)c(C)cc2C)=[N+]2C1=Cc1ccc(CCC(=O)O)n1[B-]2(F)F` [BAA-16a], the “Stokes Shift” value came to 58 nm, the “λmax ABS” value amounted to 552 nm, the “λmax EM” value stood at 610 nm and the “FWHM (full-width-at half max)” value came out at 78. Also, the “φfl (quantum yield)” value turned out to be 0.22.

In the case of `CC1=CC(C=Cc2cnc(-c3ccc(Cl)cc3)s2)=[N+]2C1=Cc1ccc(C(=Cc3cnc(-c4ccc(Cl)cc4)s3)CC(=O)O)n1[B-]2(F)F` [BAA-34b], the “Stokes Shift” value was 11 nm, the “λmax ABS” value amounted to 570 nm, the “λmax EM” value worked out at 581 nm and the “FWHM (full-width-at half max)” value is given as 31. For the same compound, the “φfl (quantum yield)” value was found to be 0.96.

Regarding `CC1=CC(C=Cc2c[nH]c3c(OCc4ccccc4)cccc23)=[N+]2C1=Cc1ccc(CCC(=O)O)n1[B-]2(F)F` [BAA-77a], the “Stokes Shift” value was 31 nm, the “λmax ABS” value turned out to be 603 nm, the “λmax EM” value was determined as 634 nm and the “FWHM (full-width-at half max)” value amounted to 61. Besides, the “φfl (quantum yield)” value was 0.50.

As for `CC1=CC(C=Cc2cccc3cnccc23)=[N+]2C1=Cc1ccc(CCC(=O)O)n1[B-]2(F)F` [BAA-62a], the “Stokes Shift” value stood at 15 nm, the “λmax ABS” value was found to be 579 nm, the “λmax EM” value was found to be 594 nm and the “FWHM (full-width-at half max)” value was 33. Moreover, the “φfl (quantum yield)” value was 0.68.

As for `COc1cc(C=CC2=[N+]3C(=Cc4ccc(C(=Cc5ccc(OCc6cccc(C(F)(F)F)c6)c(OC)c5)CC(=O)O)n4[B-]3(F)F)C(C)=C2)ccc1OCc1cccc(C(F)(F)F)c1` [BAA-44b], the “Stokes Shift” value is 18 nm, the “λmax ABS” value is listed as 582 nm, the “λmax EM” value came to 600 nm and the “FWHM (full-width-at half max)” value is 43. Moreover, the “φfl (quantum yield)” value amounted to 0.28.
